Measurements from patent publication US20140378463A1, “IP receptor agonist heterocyclic compounds” (NOVARTIS AG, priority 2012, published 2014).

target: T1, IP receptor (Homo sapiens, UniProt P43119); experiment: cAMP accumulation in CHO cells stably expressing the IP receptor (CHO-IP), PerkinElmer AlphaScreen assay; assay type: cell-based; settings: 1 hour at room temperature, 4-parameter logistic fit
T1 construct: expressed in transfected cells; host or cells: CHO cells stably expressing the IP receptor (CHO-IP)
T1 sequence (P43119 whole entry): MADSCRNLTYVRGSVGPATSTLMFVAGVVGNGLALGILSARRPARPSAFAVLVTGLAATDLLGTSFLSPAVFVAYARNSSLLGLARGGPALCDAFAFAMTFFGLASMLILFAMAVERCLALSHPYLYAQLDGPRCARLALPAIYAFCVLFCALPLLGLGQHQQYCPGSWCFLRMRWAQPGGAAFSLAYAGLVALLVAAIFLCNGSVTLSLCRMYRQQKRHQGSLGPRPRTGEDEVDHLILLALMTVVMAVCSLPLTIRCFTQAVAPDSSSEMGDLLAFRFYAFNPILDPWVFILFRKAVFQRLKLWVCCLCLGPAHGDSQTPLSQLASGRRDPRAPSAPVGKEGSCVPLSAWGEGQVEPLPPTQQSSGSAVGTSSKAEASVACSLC
Experimental: Activity of compounds at the IP receptor (IP receptor) is assessed by measuring cAMP accumulation in CHO cells stably expressing the IP receptor (CHO-IP) using the PerkinElmer AlphaScreen assay. This technology measures the endogenous production of cAMP, in a non-radioactive luminescence proximity homogenous assay. A biological reaction occurs between streptavidin coated donor beads, biotinylated cAMP and anti-cAMP acceptor beads, bringing the donor and acceptor beads close enough together so that upon excitation a fluorescence signal is produced. On production of endogenous cAMP, competition between the biotinylated cAMP and cellular-derived cAMP causes a reduction in the fluorescent signal. The reduction in signal is proportional to the amount of cAMP being produced, thus it is possible to quantify the amount of cAMP being produced on stimulation with agonist.
Test and reference compounds are prepared at 100×[final] in 100% DMSO, and diluted 1:3 using a Biomek Fx (Beckman Coulter). This is followed by an intermediate dilution to give 5×[final] in assay buffer (HBSS containing 5 mM HEPES, 0.1% (w/v) BSA). 5 μL of 5×[final] test compounds, reference compounds and buffer/DMSO control are then transferred to a 384-well white OptiPlate, containing 20 μL CHO-IP cell suspension (15,000 cells/well, prepared from frozen), and plate is incubated at room temperature for 1 hour. A cAMP standard curve is constructed for each experiment (concentration range of 10000 nM to 0.001 nM, in assay buffer) and 25 μL of each concentration added to the last two columns of the assay plate. The incubation is terminated by the addition of lysis buffer (dH2O; 0.3% (v v^−1) Tween-20) containing 20 units mL^−1 streptavidin coated donor beads and biotinylated cAMP (pre-incubated for 30 minutes) and 20 units mL^−1 anti-cAMP acceptor beads, which are added to the lysis buffer just before addition to the assay plate. The assay plate is then incubated at room temperature in the dark, for 60 minutes with gentle shaking, and read on the Envision plate reader (Perkin Elmer).
The raw data of the reference compounds, test compounds and controls are converted into cAMP concentrations, using the cAMP standard curve, in GraphPadPrism (Graph Pad Software Inc). EC50 as well as maximal values of the agonist curves are determined using a 4-parameter logistic equation. The % maximum response values of all test compounds are determined using the top of the treprostinil concentration-response curve.

`Cc1ccc(-c2nc3c(nc2-c2ccc(C)cc2)C(CCCCCCC(=O)O)NCC3)cc1` (racemic) [Example 2.1, rac-7-(2,3-Dip-tolyl-5,6,7,8-tetrahydropyrido[3,4-b]pyrazin-5-yl)heptanoic acid] and `Cc1ccc(-c2nc3c(nc2-c2ccc(C)cc2)C(CCCCCC(=O)O)NCC3)cc1` (racemic) [Example 2, rac-6-(2,3-Dip-tolyl-5,6,7,8-tetrahydropyrido[3,4-b]pyrazin-5-yl)hexanoic acid] are within 1.5-fold of each other in EC50: 5.4 nM for the first, 5 nM for the second.

Going from `Cc1ccc(-c2nc3c(nc2-c2ccc(C)cc2)C(CCCCCCC(=O)O)N(C)CC3)cc1` (stereo not drawn) [Example 3, 7-(6-Methyl-2,3-dip-tolyl-5,6,7,8-tetrahydropyrido[3,4-b]pyrazin-5-yl)heptanoic acid] to `Cc1ccc(-c2nc3c(nc2-c2ccc(C)cc2)C(CCCCCC(=O)O)N(C)CC3)cc1` (racemic) [Example 3.1, rac-6-(6-Methyl-2,3-dip-tolyl-5,6,7,8-tetrahydropyrido[3,4-b]pyrazin-5-yl)hexanoic acid], the EC50 rises from 2.3 nM to 25.9 nM (11-fold). The first is the more potent here.

First: CC1c2nc(-c3ccccc3)c(-c3ccccc3)nc2CCN1CCCCCCC(=O)O (single isomer, unassigned) [Example 1(i), (R)-7-(5-methyl-2,3-diphenyl-7,8-dihydropyrido[3,4-b]pyrazin-6(5H)-yl)heptanoic acid or (S)-7-(5-methyl-2,3-diphenyl-7,8-dihydropyrido[3,4-b]pyrazin-6(5H)-yl)heptanoic acid]
Second: Cc1ccc(-c2nc3c(nc2-c2ccc(C)cc2)C(C)N(CCCCCC(=O)O)CC3)cc1 (stereo not drawn) [Example 1.2, 6-(5-Methyl-2,3-di-p-tolyl-7,8-dihydro-5H-pyrido[3,4-b]pyrazin-6-yl)-hexanoic acid]
The EC50 of the first is 95-fold higher: 190 nM for the first, 2 nM for the second.

Going from `CC1c2nc(-c3ccccc3)c(-c3ccccc3)nc2CCN1CCCCCCC(=O)O` (racemic) [Example 1, rac-7-(5-methyl-2,3-diphenyl-7,8-dihydropyrido[3,4-b]pyrazin-6(5H)-yl)heptanoic acid] to `Cc1ccc(-c2nc3c(nc2-c2ccc(C)cc2)C(C)N(CCCCC(=O)O)CC3)cc1` (stereo not drawn) [Example 1.1, 5-(5-Methyl-2,3-di-p-tolyl-7,8-dihydro-5H-pyrido[3,4-b]pyrazin-6-yl)-pentanoic acid], the EC50 falls from 275 nM to 1.5 nM (180-fold). The second is the more potent here.

`CC1c2nc(-c3ccccc3)c(-c3ccccc3)nc2CCN1CCCCCCC(=O)O` (single isomer, unassigned) [Example 1(ii), (R)-7-(5-methyl-2,3-diphenyl-7,8-dihydropyrido[3,4-b]pyrazin-6(5H)-yl)heptanoic acid or (S)-7-(5-methyl-2,3-diphenyl-7,8-dihydropyrido[3,4-b]pyrazin-6(5H)-yl)heptanoic acid] gave an EC50 of 710 nM.
